# Molecular target: BRD4 (Homo sapiens, UniProt O60885)
# Assay: Time Resolved Fluorescence Resonance Energy Transfer (TR-FRET) binding assay, BRD4
# Details: one of the FRET assays described; read-out: FRET BRD4 IC50
row,Structure (SMILES),IC50
1,"Cc1nnn(C)c1-c1cnc2c3ccc(C(C)(C)O)cc3n(C(c3ccc(F)cc3)C3CCC3)c2c1 (single isomer, unassigned) [Example 251, 2-{5-[Cyclobutyl(4-fluorophenyl)methyl]-3-(dimethyl-1H-1,2,3-triazol-5-yl)-5H-pyrido[3,2-b]indol-7-yl}propan-2-ol]",< 5 nM
2,"Cc1nnn(C)c1-c1cnc2c3ccc(C(C)(C)O)cc3n(C(CCC(F)(F)F)c3ccccn3)c2c1 (single isomer, unassigned) [Example 253, 2-[3-(Dimethyl-1H-1,2,3-triazol-5-yl)-5-[4,4,4-trifluoro-1-(pyridin-2-yl)butyl]-5H-pyrido[3,2-b]indol-7-yl]propan-2-ol]",< 5 nM
3,"Cc1nnn(C)c1-c1cnc2c3ccc(C(C)(C)O)cc3n(C(CCC(F)(F)F)c3ccccn3)c2c1 (single isomer, unassigned) [Example 254, 2-[3-(Dimethyl-1H-1,2,3-triazol-5-yl)-5-[4,4,4-trifluoro-1-(pyridin-2-yl)butyl]-5H-pyrido[3,2-b]indol-7-yl]propan-2-ol]",< 5 nM
4,"Cc1nnn(C)c1-c1cnc2c3c(S(C)(=O)=O)cccc3n(C(CCC(F)(F)F)c3ccccn3)c2c1 (single isomer, unassigned) [Example 258, 2-{1-[3-(Dimethyl-1H-1,2,3-triazol-5-yl)-9-methanesulfonyl-5H-pyrido[3,2-b]indol-5-yl]-4,4,4-trifluorobutyl}pyridine]",< 5 nM
5,"Cc1cc(C(C2CCOCC2)n2c3cc(C(C)(C)O)ccc3c3ncc(-c4c(C)nnn4C)cc32)no1 (single isomer, unassigned) [Example 286, 2-[3-(Dimethyl-1H-1,2,3-triazol-5-yl)-5-[(5-methyl-1,2-oxazol-3-yl)(oxan-4-yl)methyl]-5H-pyrido[3,2-b]indol-7-yl]propan-2-ol]",< 5 nM
6,"Cc1cc(C(C2CCOCC2)n2c3cc(C(C)(C)O)ccc3c3ncc(-c4c(C)nnn4C)cc32)no1 (single isomer, unassigned) [Example 287, 2-[3-(Dimethyl-1H-1,2,3-triazol-5-yl)-5-[(5-methyl-1,2-oxazol-3-yl)(oxan-4-yl)methyl]-5H-pyrido[3,2-b]indol-7-yl]propan-2-ol]",< 25 nM
7,"Cc1nnn(C)c1-c1cnc2c3ccc(C(C)(C)O)c(F)c3n(C(c3ccncc3F)C3CCOCC3)c2c1 (single isomer, unassigned) [Example 288]",< 5 nM
8,"Cc1nnn(C)c1-c1cnc2c3ccc(C(C)(C)O)c(F)c3n(C(c3ccncc3F)C3CCOCC3)c2c1 (single isomer, unassigned) [Example 289]",< 5 nM
9,"Cc1cc(C(C2CCOCC2)n2c3cc(-c4c(C)nnn4C)cnc3c3ccc(C(C)(C)O)c(F)c32)no1 (single isomer, unassigned) [Example 290]",< 5 nM
10,"Cc1nnn(C)c1-c1cnc2c3ccc(C(C)(C)O)cc3n(C(c3ncccn3)C3CCOCC3)c2c1 (single isomer, unassigned) [Example 292]",< 5 nM
11,"Cc1nnn(C)c1-c1cnc2c3ccc(C(C)(C)O)cc3n(C(c3ncccc3F)C3CCOCC3)c2c1 (single isomer, unassigned) [Example 293]",< 5 nM
12,"Cc1nnn(C)c1-c1cnc2c3ccc(C(C)(C)O)cc3n(C(c3ncccc3F)C3CCOCC3)c2c1 (single isomer, unassigned) [Example 294]",< 5 nM
13,"Cc1cccc(C(C2CCOCC2)n2c3cc(C(C)(C)O)ccc3c3ncc(-c4c(C)nnn4C)cc32)n1 (single isomer, unassigned) [Example 295]",< 5 nM
14,"Cc1nnn(C)c1-c1cnc2c3ccc(C(C)(C)O)cc3n(C(c3cccnn3)C3CCOCC3)c2c1 (single isomer, unassigned) [Example 296]",< 5 nM
15,"Cc1nnn(C)c1-c1cnc2c3ccc(C(C)(C)O)cc3n(C(c3cc(Cl)ccn3)C3CCOCC3)c2c1 (single isomer, unassigned) [Example 297]",< 5 nM
16,"Cc1nnn(C)c1-c1cnc2c3ccc(C(C)(C)O)cc3n(C(c3cc(Cl)ccn3)C3CCOCC3)c2c1 (single isomer, unassigned) [Example 298]",< 25 nM
17,"Cc1noc(C(C2CCOCC2)n2c3cc(C(C)(C)O)ccc3c3ncc(-c4c(C)nnn4C)cc32)n1 (single isomer, unassigned) [Example 299]",< 5 nM
18,"Cc1noc(C(C2CCOCC2)n2c3cc(C(C)(C)O)ccc3c3ncc(-c4c(C)nnn4C)cc32)n1 (single isomer, unassigned) [Example 300]",< 25 nM
19,"Cc1cccnc1C(C1CCOCC1)n1c2cc(C(C)(C)O)ccc2c2ncc(-c3c(C)nnn3C)cc21 (single isomer, unassigned) [Example 301]",< 5 nM
20,"Cc1cccnc1C(C1CCOCC1)n1c2cc(C(C)(C)O)ccc2c2ncc(-c3c(C)nnn3C)cc21 (single isomer, unassigned) [Example 302]",< 5 nM
21,"Cc1nnn(C)c1-c1cnc2c3ccc(C(C)(C)O)cc3n(C(c3ncccc3Cl)C3CCOCC3)c2c1 (single isomer, unassigned) [Example 303]",< 5 nM
22,"Cc1nnn(C)c1-c1cnc2c3ccc(C(C)(C)O)cc3n(C(c3ncccc3Cl)C3CCOCC3)c2c1 (single isomer, unassigned) [Example 304]",< 5 nM

row,Structure (SMILES),IC50
1,"Cc1nnn(C)c1-c1cnc2c3ccc(C(C)(C)O)c(F)c3n(C(c3ncccc3F)C3CCOCC3)c2c1 (single isomer, unassigned) [Example 305]",< 5 nM
2,"Cc1cc(C(C2CCOCC2)n2c3cc(C(C)(C)O)ccc3c3ncc(-c4c(C)noc4C)cc32)no1 (single isomer, unassigned) [Example 306]",< 5 nM
3,"Cc1cc(C(C2CCOCC2)n2c3cc(C(C)(C)O)ccc3c3ncc(-c4c(C)noc4C)cc32)no1 (single isomer, unassigned) [Example 307]",< 25 nM
4,"[2H]C([2H])([2H])c1nnn(C)c1-c1cnc2c3ccc(C(C)(C)O)cc3n(C(c3ccncc3F)C3CCOCC3)c2c1 (single isomer, unassigned) [Example 310]",< 5 nM
5,"[2H]C([2H])([2H])c1nnn(C)c1-c1cnc2c3ccc(C(C)(C)O)cc3n(C(c3ccncc3F)C3CCOCC3)c2c1 (single isomer, unassigned) [Example 311]",< 5 nM
6,"[2H]C([2H])([2H])c1nnn(C)c1-c1cnc2c3c(OC)cc(C(C)(C)O)cc3n(C(c3cc(C)on3)C3CCOCC3)c2c1 (single isomer, unassigned) [Example 312]",< 5 nM
7,"[2H]C([2H])([2H])c1nnn(C)c1-c1cnc2c3cc(F)c(C(C)(C)O)cc3n(C(c3cc(C)on3)C3CCOCC3)c2c1 (single isomer, unassigned) [Example 313]",< 5 nM
8,"[2H]C([2H])([2H])c1nnn(C)c1-c1cnc2c3ccc(C(C)(C)O)c(F)c3n(C(c3cc(C)on3)C3CCOCC3)c2c1 (single isomer, unassigned) [Example 314]",< 5 nM
9,"[2H]C([2H])([2H])c1nnn(C)c1-c1cnc2c3ccc(C(C)(C)O)cc3n(C(c3ncccc3F)C3CCOCC3)c2c1 (single isomer, unassigned) [Example 315]",< 5 nM
10,"[2H]C([2H])([2H])c1nnn(C)c1-c1cnc2c3ccc(C(C)(C)O)cc3n(C(c3ncccc3F)C3CCOCC3)c2c1 (single isomer, unassigned) [Example 316]",< 5 nM
11,"[2H]C([2H])([2H])c1nnn(C)c1-c1cnc2c3ccc(C(C)(C)O)cc3n(C(c3ccc(F)cn3)C3CCOCC3)c2c1 (single isomer, unassigned) [Example 317]",< 5 nM
12,"[2H]C([2H])([2H])c1nnn(C)c1-c1cnc2c3ccc(C(C)(C)O)cc3n(C(c3ncccc3C(F)(F)F)C3CCOCC3)c2c1 (single isomer, unassigned) [Example 318]",< 5 nM
13,"[2H]C([2H])([2H])c1nnn(C)c1-c1cnc2c3ccc(C(C)(C)O)cc3n(C(c3ncccc3C(F)(F)F)C3CCOCC3)c2c1 (single isomer, unassigned) [Example 319]",< 5 nM
14,"[2H]C([2H])([2H])c1nnn(C)c1-c1cnc2c3ccc(C(C)(C)O)cc3n(C(c3ccc(Cl)cn3)C3CCOCC3)c2c1 (single isomer, unassigned) [Example 320]",< 5 nM
15,"[2H]C([2H])([2H])c1nnn(C)c1-c1cnc2c3ccc(C(C)(C)O)cc3n(C(c3ncccc3Cl)C3CCOCC3)c2c1 (single isomer, unassigned) [Example 321]",< 5 nM
16,"[2H]C([2H])([2H])c1nnn(C)c1-c1cnc2c3ccc(C(C)(C)O)cc3n(C(c3ncccc3Cl)C3CCOCC3)c2c1 (single isomer, unassigned) [Example 322]",< 5 nM
17,"[2H]C([2H])([2H])c1nnn(C)c1-c1cnc2c3ccc(C(C)(C)O)c(F)c3n(C(c3ccc(F)cn3)C3CCOCC3)c2c1 (single isomer, unassigned) [Example 323]",< 25 nM
18,"[2H]C([2H])([2H])c1nnn(C)c1-c1cnc2c3ccc(C(C)(C)O)c(F)c3n(C(c3ccc(F)cn3)C3CCOCC3)c2c1 (single isomer, unassigned) [Example 324]",< 25 nM
19,"[2H]C([2H])([2H])c1nnn(C)c1-c1cnc2c3cc(F)c(C(C)(C)O)cc3n(C(c3cc(OC)ccn3)C3CCOCC3)c2c1 (single isomer, unassigned) [Example 325]",< 5 nM
20,"[2H]C([2H])([2H])c1nnn(C)c1-c1cnc2c3cc(F)c(C(C)(C)O)cc3n(C(c3cc(OC)ccn3)C3CCOCC3)c2c1 (single isomer, unassigned) [Example 326]",< 25 nM
21,"Cc1cc(C(C2CCOCC2)n2c3cc(C(C)(C)O)ccc3c3ncc(-c4c(C)nnn4C)cc32)n(C)n1 (single isomer, unassigned) [Example 341, 2-[3-(Dimethyl-1H-1,2,3-triazol-5-yl)-5-[(1,3-dimethyl-1H-pyrazol-5-yl)(oxan-4-yl)methyl]-5H-pyrido[3,2-b]indol-7-yl]propan-2-ol]",< 5 nM
22,"Cc1cc(C(C2CCOCC2)n2c3cc(C(C)(C)O)ccc3c3ncc(-c4c(C)nnn4C)cc32)n(C)n1 (single isomer, unassigned) [Example 342, 2-[3-(Dimethyl-1H-1,2,3-triazol-5-yl)-5-[(1,3-dimethyl-1H-pyrazol-5-yl)(oxan-4-yl)methyl]-5H-pyrido[3,2-b]indol-7-yl]propan-2-ol]",< 25 nM
